US20170119742A1, “MEDICAMENT FOR PREVENTING AND/OR TREATING STRESS DISEASES” (ONO PHARMACEUTICAL CO., LTD., priority 2014, published 2017)

Experiments:
[1] = tested on: female diarrhea-type IBS patients; assay: PSS (Perceived Stress Scale) in the clinical trial of Biological example 10; format: in vivo, human; details: 60 mg treatment
Method: (§1) In the clinical trial of Biological example 10, the therapeutic effect of the compound of the present invention 60 mg treatment on depression and anxiety-related diseases were evaluated using PSS (Perceived Stress Scale) (refer to Journal of Health and Social Behavior, 24, 386-396, 1983), HAM-A (Hamilton Anxiety Scale) (refer to The British journal of medical psychology, 32, 50-55, 1959) and HAM-D (Hamilton Depression scale) (refer to Journal of Neurology, Neurosurgery and Psychiatry, 23, 56-62, 1960) as rating scales.

[2] = tested on: CCK-4 induced stress model; assay: Antianxiety effect (2): freezing time in CCK-4 induced stress model; format: in vivo; details: rat, 1 and 3 mg/kg oral, 2 h before CCK-4 3 mg/kg s.c., Steel test
Method: Male LEW/CrlCrlj rats (Charles River Laboratories Japan, Inc., at the time of evaluation: 6 weeks old) were used. In accordance with Rupprecht et al. method (Science, Vol. 325, p. 490-493, 2009), cholecystokinin tetrapeptide (CCK-4) (3 mg/kg) was administered subcutaneously to the rat to induce freezing behavior which was used as an indicator of anxiety. The vehicle (0.5 w/v % methylcellulose 400 cP solution) or the compound of the present invention (1 or 3 mg/kg) was orally administered to the rat. Two hours after the administration, CCK-4 (3 mg/kg) was subcutaneously administered. Two minutes after the administration of CCK-4, the front paws of the rat were placed on a wooden block of height 7 cm. […] Instead of CCK-4, the normal group was administered 1% dimethyl formamide which is the vehicle of CCK-4. Cut-off time was set to 120 seconds. This trial was carried out a total five times at about 2 minute intervals, and the sum of the freezing time was calculated.

[3] = molecular target: T1, brain TSPO (Rattus norvegicus, UniProt P16257); assay: Ex vivo brain TSPO occupancy in rats, [3H] PK11195 radiotracer (Biological example 1); details: for receptor occupancy at 0.1 mg/kg / receptor occupancy at 0.3 mg/kg / receptor occupancy at 1 mg/kg / receptor occupancy at 3 mg/kg: rat, po, [3H] PK11195; for receptor occupancy at 0.1 mg/kg: 0.1 mg/kg oral; for receptor occupancy at 0.3 mg/kg: 0.3 mg/kg oral; for receptor occupancy at 1 mg/kg: 1 mg/kg oral; for receptor occupancy at 3 mg/kg: 3 mg/kg oral
T1 construct: measured by using brain (cerebral cortex and hippocampus) homogenates of the vehicle treated group and the compound of the present invention treated group; from tissue; host or cells: Wistar rat brain (cerebral cortex, hippocampus) homogenate
Method: (§2) Male Sic: Wistar rats (Japan SLC, Inc., at the time of use: 11 weeks old) was exposed to physical and mental stressors (Journal of Pharmacological Science, Vol. 104, p. 263-273, 2007). The vehicle (0.5 w/v % methylcellulose 400 cP solution) or the compound of the present invention (0.1, 0.3, 1 and 3 mg/kg) was orally administered. Two hours after the administration, the stressor load was started by putting the rat in a restraint stress cage (Natsume Seisakusho Co., Ltd.). The antistress effect was evaluated by measuring the stool weight which was excreted during the stressor load of 1 hour (n=12 in each group).
Next, brain TSPO occupancy of the compound of the present invention was measured by using brain (cerebral cortex and hippocampus) homogenates of the vehicle treated group and the compound of the present invention treated group, using [^3H] PK11195 as a radiotracer. PK11195 was dissolved in dimethyl sulfoxide (DMSO) to prepare a 4 mmol/L solution. After preparing an ethanol solution of 100 nmol/L [^3H] PK11195 (PerkinElmer, Inc.), the solution was diluted 50-fold with 50 mmol/L HEPES buffer (Sigma-Aldrich Co.). In the case of determining the total binding amount of the radiotracer, 50 mmol/L HEPES (99 μL) and DMSO (1 μL) were added to Nunc MiniSorp (trade name, 12×75 mm, Thermo Fisher Scientific Inc.). In the case of determining the nonspecific binding amount of the radiotracer, 4 mmol/L PK11195 (1 μL) was substituted for DMSO (1 μL). The brain homogenate (50 μL) derived from cerebral cortex or the hippocampus was added to the tube. Then [^3H] PK11195 (50 μL) (cerebral cortex: final concentration 0.4532 nmol/L, hippocampus: final concentration 0.4520 nmol/L) was added and stirred, and the mixture was incubated for 90 minutes at 4° C. After completion of the reaction, ice-cold 50 mmol/L HEPES (2 mL) was added to the tube, and then the mixture was suction filtered on a glass fiber filter (GF/B, Brandel Inc.) which pretreated with 0.3 w/v % polyethyleneimine (Sigma-Aldrich Co.), to collect the brain homogenate. After drying the glass fiber filter, the absorbing part of the brain homogenate was transferred to a liquid scintillation vial. ACS-II scintillation cocktail (7 mL) was added to the liquid scintillation vial and stirred, and the radioactivity was measured by liquid scintillation counter (TRI-CARB2900TR, PerkinElmer Life and Analytical Sciences Inc.). Specific binding amount (dpm) of [3H] PK11195 in each brain homogenate was set to a value obtained by subtracting the nonspecific binding amount (dpm) from the total binding amount (dpm). TSPO occupancy (%) in cerebral cortex and hippocampus, of the compound of the present invention treated group, were calculated according to the following equation.
TSPO Occupancy (%)=(1−X/Y)×100
X: Specific binding amount (dpm) in each brain homogenate Y: Average value (dpm) of specific binding amount in control group

[4] = tested on: Wistar rats exposed to physical and mental stressors; assay: Antistress effect: stool weight excreted during restraint stressor load in rats; format: in vivo; details: rat; for average stool wet weight: 2 h before 1 h restraint stressor, vehicle 1.79 g, normal 0.04 g
Method: as §2

[5] = tested on: female diarrhea-type IBS patients; assay: HAM-D (Hamilton Depression scale) in the clinical trial of Biological example 10; format: in vivo, human; details: 60 mg treatment
Method: as §1

SMILES: COc1cc(Cl)ccc1[C@H]1c2[nH]c3cccc(F)c3c2C2(CC2)CN1C(C)=O [the compound of the present invention, (1S)-2-acetyl-1-(4-chloro-2-methoxyphenyl)-5-fluoro-1,2,3,9-tetrahydrospiro[β-carboline-4,1′-cyclopropane]]
- PSS score, 4th week ([1]; Patient A, baseline 35): 19
- PSS score, Amount of change from baseline ([1]; Patient A, baseline 35, 4th week): −16
- PSS score, 4th week ([1]; Patient B, baseline 23): 13
- PSS score, Amount of change from baseline ([1]; Patient B, baseline 23, 4th week): −10
- PSS score, 4th week ([1]; Patient C, baseline 18): 6
- PSS score, Amount of change from baseline ([1]; Patient C, baseline 18, 4th week): −12
- freezing time vs. vehicle control group [2]: shortened this extended freezing time significantly
- receptor occupancy at 0.1 mg/kg ([3]; rat cerebral cortex): 11.8%
- receptor occupancy at 0.3 mg/kg ([3]; rat cerebral cortex): 47.7%
- receptor occupancy at 1 mg/kg ([3]; rat cerebral cortex): 83.8%
- receptor occupancy at 3 mg/kg ([3]; rat cerebral cortex): 94.5%
- receptor occupancy at 0.1 mg/kg ([3]; rat hippocampus): 25.7%
- receptor occupancy at 0.3 mg/kg ([3]; rat hippocampus): 50.7%
- receptor occupancy at 1 mg/kg ([3]; rat hippocampus): 86.3%
- receptor occupancy at 3 mg/kg ([3]; rat hippocampus): 95.1%
- brain TSPO occupancy required to exert antistress, antidepressant and antianxiety effect ([3]; rats, achieved by 0.3 to 3 mg/kg, from Biological examples 1 to 4): ≥ 50%
- average stool wet weight ([4]; 0.1 mg/kg oral): 1.48 g
- average stool wet weight ([4]; 0.3 mg/kg oral): 0.96 g
- average stool wet weight ([4]; 1 mg/kg oral): 0.60 g
- average stool wet weight ([4]; 3 mg/kg oral): 0.67 g
- effect on stool wet weight compared to the vehicle treated group ([4]; dose of 0.3, 1 and 3 mg/kg oral): significantly inhibit the stool wet weight
- HAM-D score, 4th week ([5]; Patient D, baseline 18): 2
- HAM-D score, Amount of change from baseline ([5]; Patient D, baseline 18, 4th week): −16
- HAM-D score, 4th week ([5]; Patient E, baseline 13): 3
- HAM-D score, Amount of change from baseline ([5]; Patient E, baseline 13, 4th week): −10
- HAM-D score, 4th week ([5]; Patient F, baseline 20): 13
- HAM-D score, Amount of change from baseline ([5]; Patient F, baseline 20, 4th week): −7
- HAM-D score, 4th week ([5]; Patient G, baseline 13): 4
- HAM-D score, Amount of change from baseline ([5]; Patient G, baseline 13, 4th week): −9
